{
  "source": "patent US10532109B2",
  "about": "“Peptide-DNA chimeras for treatment of HER overexpressing cancers” (ARIZONA BOARD OF REGENTS ON BEHALF OF ARIZONA STATE …, priority 2016, dated 2020)",
  "key": {"[1]": {"tested_on": "BT474 human breast cancer cells (overexpression of HER2)", "experiment": "Cancer cell inhibition assay (MTT), BT474", "format": "cell-based", "details": "for inhibition at 0.32 µM: BT-474, 320 nM doxorubicin, free or as 6.4 nM IV (1:50 III-doxorubicin); for inhibition at 0.32 µM / inhibition at 0.64 µM: read-out: inhibition of BT474 cell growth; for inhibition at 0.64 µM: BT-474, 640 nM doxorubicin, free or as 12.8 nM IV", "quoted_text": "Exponentially growing BT474 cells and MDA-MB-231 cells were harvested and plated in 96-well plates at a concentration of 2×10^4 cells/well for BT474 cells and 5×10^4 cells/well for MDA-MB231 cells. […] Then 20 μL of MTT (5 mg/mL) was added to each well and the plates were incubated at 37° C. for 4 hours. The supernatant was discarded, and 100 μL of DMSO was added to each well. The absorbance was recorded at 490 nm after 15 minutes. Inhibition of cell growth was obtained by the following formula: Inhibition (%)=(ODTreatment−ODbackground)/(ODNagative control−ODbackground)×100%"}, "[2]": {"tested_on": "MDA-MB-231 human breast cancer cells (low expression of HER2 receptor)", "experiment": "Cancer cell inhibition assay (MTT), MDA-MB-231", "format": "cell-based", "details": "48, 72, 96 h", "method": "BT474 human breast cancer cells (ATCC® HTB-20™, overexpression of HER2) and MDA-MB-231 human breast cancer cells (ATCC® HTB-26™, low expression of HER2 receptor) were cultured at 37° C. in a 5% CO2 atmosphere and grown in Gibco® RPMI 1640 medium supplemented with 10% fetal bovine serum (FBS) and 1% antibiotic-antimycotic mix antibiotic supplement before use.\nExponentially growing BT474 cells and MDA-MB-231 cells were harvested and plated in 96-well plates at a concentration of 2×10^4 cells/well for BT474 cells and 5×10^4 cells/well for MDA-MB231 cells. […] Then 20 μL of MTT (5 mg/mL) was added to each well and the plates were incubated at 37° C. for 4 hours. The supernatant was discarded, and 100 μL of DMSO was added to each well. The absorbance was recorded at 490 nm after 15 minutes. Inhibition of cell growth was obtained by the following formula: […]\nData are reported as the mean of three independent experiments, each run in quintuplicate."}, "BT474 cells": {"tested_on": "BT474 cells", "experiment": "HER2 binding assay (fluorescence microscopy), BT474", "format": "cell-based, human", "details": "1 μM; 1 hour", "method": "(§1) BT474 cells and MDA-MB-231 cells were grown on glass bottom microwell disks at a cell density of approximately 10,000 cells/well at 37° C. for 48 hours. […] Then the cells were stained using 2.5 μg/mL DAPI (Invitrogen) for 30 minutes after the cells were rinsed with phosphate buffered saline (PBS) for two times. Finally, the cells were fixed with 4% paraformaldehyde for 10 minutes. The fluorescent images were obtained using a fluorescence microscope (Nikon Ti-U, Japan) with red and green filters. Thereafter, all images were recorded and the target cells counted using a 40× oil objective. To ensure accurate intensity measurements, the exposure time (3000 ms) and laser time were kept the same. The mean pixel intensity within the region of interest was calculated. Data are reported as the mean of three independent experiments, each run in quintuplicate. The data was expressed as mean±SD."}, "MDA-MB-231 cells": {"tested_on": "MDA-MB-231 cells", "experiment": "HER2 binding assay (fluorescence microscopy), MDA-MB-231", "format": "cell-based, human", "details": "1 μM; 1 hour", "method": "as §1"}},
  "note": "“Also recorded” adds a separate entry of the source. Read-outs that look alike come from different tables or passages of the source.",
  "data": [
    {"smiles": "COc1cccc2c1C(=O)c1c(O)c3c(c(O)c1C2=O)C[C@@](O)(C(=O)CO)C[C@@H]3O[C@H]1C[C@H](N)[C@H](O)[C@H](C)O1", "note": "[doxorubicin]", "values": [
      {"measurement": "inhibition at 0.32 µM", "setting": "[1]; 48 h", "value": 19, "unit": "%"},
      {"measurement": "inhibition at 0.32 µM", "setting": "[1]; 72 h", "value": 43, "unit": "%"},
      {"measurement": "inhibition at 0.32 µM", "setting": "[1]; 96 h", "value": 44, "unit": "%"},
      {"measurement": "inhibition at 0.64 µM", "setting": "[1]; 48 h", "value": 36, "unit": "%"},
      {"measurement": "inhibition at 0.64 µM", "setting": "[1]; 72 h", "value": 68, "unit": "%"},
      {"measurement": "inhibition at 0.64 µM", "setting": "[1]; 96 h", "value": 78, "unit": "%"},
      {"measurement": "inhibition at 0.16 µM", "setting": "[1]; BT-474, read-out: average inhibition of BT474 cell growth", "value": 10, "unit": "%"},
      {"measurement": "fold higher average percent inhibition of MDA-MB-231 by doxorubicin than IV", "setting": "[2]; 160 nM doxorubicin concentration", "value": "1.0-2.3 fold"},
      {"measurement": "fold higher average percent inhibition of MDA-MB-231 by doxorubicin than IV", "setting": "[2]; 320 nM doxorubicin concentration", "value": "1.3-2.0 fold"},
      {"measurement": "fold higher average percent inhibition of MDA-MB-231 by doxorubicin than IV", "setting": "[2]; 640 nM doxorubicin concentration", "value": "1.6-2.0 fold"},
      {"measurement": "binding ability to BT474 cells (fluorescence on cell surface, in words)", "setting": "BT474 cells", "value": "relatively weak fluorescence intensity; also recorded: relatively weak ability"},
      {"measurement": "binding selectivity between BT474 and MDA-MB-231 cells", "setting": "BT474 cells", "value": "did not show any binding selectivity; also recorded: did not shown any selectivity"},
      {"measurement": "binding ability to MDA-MB-231 cells (fluorescence on cell surface, in words)", "setting": "MDA-MB-231 cells", "value": "relatively weak fluorescence intensity; also recorded: relatively weak ability"}
    ]}
  ]
}
